According to patent US7344704B2, “Use of perfluoroalkyl-containing metal complexes as contrast media in MR-imaging for visualization of intravascular thrombi” (Schering AG, priority 2002, dated 2008):

Legend:
Assay type in all cases: physicochemical
[1] = Critical micelle formation concentration (CMC) by tensiometry
Method: In aqueous systems, these amphiphilic molecules show the properties that are characteristic of standard surfactants (such as, e.g., sodium dodecylsulfate, SDS). They thus reduce the surface tension of water. By tensiometry, the so-called CMC (critical micelle formation concentration in mol/l) can be determined. In this respect, the surface tension is determined based on the concentration of the substance to be measured. The CMC can be calculated from the plot of the surface tension function (c) that is obtained. The critical micelle formation concentration of the compounds according to the invention must be <10^−3 mol/l, preferably <10^−4 mol/l.
(§1) Both the determination of the CMC and the photon correlation spectroscopy are described in H.-D. Dörfler, “Grenzflächen-und Kolloidchemie [Interface and Colloid Chemistry],” Weinheim, New York, Basel, Cambridge, Tokyo, VSH 1994.

[2] = Hydrodynamic micelle diameter 2 Rh by photon correlation spectroscopy
Text: The amphiphilic compounds according to the invention are associated in solution and are present as aggregates. The size (2 Rh) of such aggregates (e.g., micelles, rods, wafers, etc.) can be determined with the aid of […] (PCS).
As a second criterion, the hydrodynamic micelle diameter 2 Rh, which must be >1 nm, is therefore used. In particular, those perfluoroalkyl-containing metal complexes according to the invention whose 2 RH≧3 nm, quite especially preferably >4 nm, are suitable.
as §1

[3] = Proton relaxivity R^1 in plasma (Minispec P 20); conditions: in plasma (bovine) at 40° C., field strength 0.47 Tesla
Method: As a third criterion, the proton-relaxivity in plasma (R^1) at 40° C. and a field strength of 0.47 tesla are used. The relaxivity, which is indicated in [l/mmol·s], is the quantitative measurement for the shortening of relaxation time T^1 of the protons. For the purpose according to the invention, the relaxivity must be as high as possible and >10 l/mmol·s, preferably >13 l/mmol·s, especially preferably >15 l/mmol·s.
Relaxivity R^1 [l/mmol·s] of the MR-contrast media according to the invention was determined with the Minispec P 20 device of the Bruker Company. The measurements were taken at 40° C. and a field strength of 0.47 tesla. Eight measuring points were recorded by each T1-sequence: 180°-TI-90°, inversion recovery. As a medium, bovine plasma of the Kraeber Company was used. The contrast medium concentrations [mmol/l] in the batches were between 0.30 and 1.16.
The measurements were carried out in plasma at 40° C. and a field strength of 0.47 Tesla.

Gadolinium complex of 10-{1-carboxy-2-carbonyl-[piperazin-1-yl-4-(perfluorooctylsulfonyl)]}-ethyl-1,4,7-tris(carboxymethyl)-1,4,7,10-tetraazacyclododecane, Sodium salt [MK 29]
CMC (Critical Micelle Formation Concentration) [1]: 7.6e-05 mol/L | 2 Rh (Hydrodynamic Micelle Diameter) [2]: 4.8 nm | R^1 (Relaxivity) [3]: 17.7 l: mmol · s

O=C([O-])CN1CCN(CC(=O)[O-])CCN(CC(O)CNC(=O)CNC(=O)CNC(=O)CNC(=O)COCCC(F)(F)C(F)(F)C(F)(F)C(F)(F)C(F)(F)C(F)(F)C(F)(F)C(F)(F)F)CCN(CC(=O)[O-])CC1.[Gd+3] (stereo not drawn) [MK 30, 1,4,7-Tris(carboxylatomethyl)-1,4,7,10-tetraazacyclododecane-10-{2-hydroxy-3-N-[triglycidyl-N-(2H,2H,4H,4H,5H,5H-3-oxa-perfluorotridecanoyl)]amino}-propyl, gadolinium complex]
CMC (Critical Micelle Formation Concentration) [1]: 7e-06 mol/L | 2 Rh (Hydrodynamic Micelle Diameter) [2]: 7.9 nm | R^1 (Relaxivity) [3]: 27.9 l: mmol · s

gadolinium complex of 1,4,7-tris{1,4,7-tris(N-(carboxylatomethyl)-10-[N-1-methyl-3,6-diaza-2,5,8-trioxooctane-1,8-diyl)]-1,4,7,10-tetraazacyclododecane, Gd complex}-10-[N-2H,2H,4H,4H,5H,5H-3-oxa-perfluorotridecanoyl]-1,4,7,10-tetraazacyclododecane [MK 12]
CMC (Critical Micelle Formation Concentration) [1]: 0.00089 mol/L | 2 Rh (Hydrodynamic Micelle Diameter) [2]: 2.2 nm | R^1 (Relaxivity) [3]: 19.5 l: mmol · s

COCCOCCOCCOCCOCC(=O)NCCCC[C@H](NC(=O)COCCC(F)(F)C(F)(F)C(F)(F)C(F)(F)C(F)(F)C(F)(F)C(F)(F)C(F)(F)F)C(=O)NCC(O)CN1CCN(CC(=O)[O-])CCN(CC(=O)[O-])CCN(CC(=O)[O-])CC1.[Gd+3] (stereo partly drawn) [MK 28, 6-N-3,6,9,12,15-Pentaoxahexadecanoyl-2-N-2H,2H,4H,4H,5H,5H-3-oxaperfluorotridecanoyl-L-lysine-N-{1,4,7-tris[carboxylatomethyl]-1,4,7,10-tetraazacyclododecane-10-(2-hydroxy-3-yl), gadoliniumcomplex}-amide]
CMC (Critical Micelle Formation Concentration) [1]: 8.1e-06 mol/L | 2 Rh (Hydrodynamic Micelle Diameter) [2]: 4.7 nm | R^1 (Relaxivity) [3]: 27.9 l: mmol · s
